The text below walks through data of the NIST ThermoML archive (doi:10.1021/je049875+).

The nature of the data set: activity coefficient (dimensionless); of the first substance listed, at infinite dilution; xn = mol fraction of the nth substance listed. The note with it: 101.33 kPa, Liquid, Chromatography, x1 = 0.

± gives the expanded uncertainty stated by the source.

`CCOC=O` [ethyl methanoate] + O: the activity coefficient (303.25 K) came to 53.8 ± 3.2, the activity coefficient (313.25 K) was found to be 55.7 ± 3.3, the activity coefficient (323.25 K) came to 57.1 ± 3.4 and the activity coefficient (333.25 K) was determined as 57.7 ± 3.5.

Take `CCOC(C)=O` [ethyl acetate] + O: the activity coefficient (303.25 K) was found to be 76.5 ± 4.6; the activity coefficient (313.25 K) was found to be 85 ± 5; the activity coefficient (323.25 K) amounted to 90.1 ± 5.4; the activity coefficient (333.25 K) stood at 94.7 ± 5.7; the activity coefficient (343.25 K) amounted to 96.2 ± 5.8.

Turning to `COC(C)(C)C` [2-methoxy-2-methylpropane] + O, the activity coefficient runs as follows: (303.25 K) 153 ± 9; (313.25 K) 195 ± 12; (323.25 K) 235 ± 14; (333.25 K) 278 ± 17.

As to `CCCOCCC` [dipropyl ether] + O, the activity coefficient came to 2520 ± 150 (303.25 K), 2880 ± 180 (313.25 K), 3230 ± 200 (323.25 K) and 3230 ± 200 (333.25 K).

Take `CC(C)OC(C)C` [diisopropyl ether] + O: the activity coefficient was 737 ± 44 (303.25 K), 965 ± 58 (313.25 K), 1140 ± 69 (323.25 K) and 1310 ± 79 (333.25 K).

As to `CCC(C)(C)OC` [2-methoxy-2-methylbutane] + O, the activity coefficient runs as follows: (303.25 K) 643 ± 39; (313.25 K) 796 ± 48; (323.25 K) 942 ± 57; (333.25 K) 1080 ± 65.

For `c1ccccc1` [benzene] + O, the activity coefficient (308.95 K) was 2470 ± 150, the activity coefficient (313.25 K) amounted to 2370 ± 140, the activity coefficient (318.25 K) came to 2250 ± 140 and the activity coefficient (323.15 K) was found to be 2140 ± 130.

As to `CCCOC(C)=O` [propyl ethanoate] + O, the activity coefficient was found to be 297 ± 18 (303.25 K); 325 ± 20 (313.25 K); 341 ± 21 (323.25 K); 351 ± 21 (333.25 K); 348 ± 21 (343.25 K).

For `CC(C)=O` [acetone] + O, the activity coefficient is 8.02 ± 0.48 (303.25 K), 9.2 ± 0.6 (313.25 K), 9.81 ± 0.58 (323.25 K) and 10.3 ± 0.6 (333.25 K).

Turning to `COC=O` [methyl methanoate] + O, the activity coefficient runs as follows: (303.25 K) 18.7 ± 1.1; (313.25 K) 19.1 ± 1.1; (323.25 K) 19.5 ± 1.2; (333.25 K) 19.8 ± 1.2.

With `CCO` [ethanol] + O, the activity coefficient came out at 5.03 ± 0.3 (303.25 K); 5.33 ± 0.32 (313.25 K); 5.54 ± 0.33 (323.25 K); 5.76 ± 0.34 (333.25 K); 5.96 ± 0.35 (343.25 K).

Consider `CCCC(C)=O` [pentan-2-one] + O, for which the activity coefficient (303.25 K) worked out at 105 ± 6, the activity coefficient (313.25 K) stood at 120 ± 7, the activity coefficient (323.25 K) was 128 ± 8 and the activity coefficient (333.25 K) was 135 ± 8.

Consider `CCC(C)=O` [butanone] + O, for which the activity coefficient runs as follows: (303.25 K) 29.5 ± 1.8; (313.25 K) 33.8 ± 2; (323.25 K) 35.9 ± 2.1; (333.25 K) 38.9 ± 2.3.

For the compound `Cc1ccccc1` [toluene] + O, the activity coefficient (308.95 K) is 8570 ± 520, the activity coefficient (313.25 K) was 8090 ± 490, the activity coefficient (318.25 K) was 7720 ± 470 and the activity coefficient (323.15 K) stood at 7110 ± 430.

Turning to `COC(C)=O` [methyl ethanoate] + O, the activity coefficient was found to be 26.2 ± 1.6 (303.25 K); 28.4 ± 1.7 (313.25 K); 29.8 ± 1.8 (323.25 K); 31.2 ± 1.9 (333.25 K); 31.6 ± 1.9 (343.25 K).

As to `CCOCC` [diethyl ether] + O, the activity coefficient by setting is: (303.25 K) 90.1 ± 5.4; (313.25 K) 113 ± 7; (323.25 K) 135 ± 8; (333.25 K) 158 ± 10.
